Data: ChEMBL document CHEMBL1201862, “PubChem BioAssay data set” (2004)
Activity calls are given as the source filed them.

Key:
Coagulation factor XII = target: T1, Coagulation factor XII (Homo sapiens, UniProt P00748); format: functional;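 also: activated factor XIIa alpha cleaving a fluorogenic AMC peptide substrate; inhibitor potency from loss of enzyme activity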
T1 sequence (P00748 whole entry): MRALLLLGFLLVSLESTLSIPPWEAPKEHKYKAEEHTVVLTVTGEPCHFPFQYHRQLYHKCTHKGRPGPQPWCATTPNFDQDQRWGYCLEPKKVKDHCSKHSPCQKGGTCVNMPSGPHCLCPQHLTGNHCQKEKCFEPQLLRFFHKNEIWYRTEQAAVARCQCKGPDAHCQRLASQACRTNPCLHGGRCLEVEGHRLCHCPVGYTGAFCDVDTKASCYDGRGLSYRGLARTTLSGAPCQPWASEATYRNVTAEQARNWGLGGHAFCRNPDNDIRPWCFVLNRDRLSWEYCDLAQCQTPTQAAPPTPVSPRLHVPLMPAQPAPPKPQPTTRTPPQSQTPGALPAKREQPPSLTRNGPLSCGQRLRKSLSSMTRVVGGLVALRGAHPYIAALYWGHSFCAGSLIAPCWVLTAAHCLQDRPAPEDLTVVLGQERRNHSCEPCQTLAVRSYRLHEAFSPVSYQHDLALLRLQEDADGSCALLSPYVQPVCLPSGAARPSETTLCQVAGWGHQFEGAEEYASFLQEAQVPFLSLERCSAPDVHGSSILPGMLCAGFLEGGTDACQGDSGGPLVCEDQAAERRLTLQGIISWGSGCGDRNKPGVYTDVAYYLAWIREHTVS

[1] = target: Neurotensin receptor type 1 (Homo sapiens, UniProt P30989); format: functional;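 also: Image-based confirmatory dose-response assay measuring agonist activity at NTR1; NTR1-expressing U2OS osteosarcoma cells imaged for beta-arrestin GFP spot formation; agonist potency where compounds increase beta-arrestin recruitment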
Sequence of Neurotensin receptor type 1 (P30989 whole entry): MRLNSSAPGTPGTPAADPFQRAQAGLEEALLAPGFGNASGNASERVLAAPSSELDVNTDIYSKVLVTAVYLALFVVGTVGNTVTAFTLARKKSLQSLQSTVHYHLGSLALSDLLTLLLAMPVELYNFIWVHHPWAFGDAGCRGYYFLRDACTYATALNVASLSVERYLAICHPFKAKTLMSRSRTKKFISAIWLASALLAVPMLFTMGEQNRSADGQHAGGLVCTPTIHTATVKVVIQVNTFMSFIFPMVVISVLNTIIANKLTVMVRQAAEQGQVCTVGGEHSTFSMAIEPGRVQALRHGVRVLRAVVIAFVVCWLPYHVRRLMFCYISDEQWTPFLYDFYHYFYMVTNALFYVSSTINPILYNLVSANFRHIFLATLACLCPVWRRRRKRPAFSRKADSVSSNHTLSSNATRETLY

Melanocortin receptor 4 = Melanocortin receptor 4 (Homo sapiens, UniProt P32245); format: functional, cell-based;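 also: Cell-based assay with luminescence read-out, confirmatory dose-response testing for agonist activity of biased ligands at MC4R; human U2OS cells with tagged receptor and beta-arrestin; potency of agonists that increase receptor coupling to beta-arrestin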
SUMO-activating enzyme = SUMO-activating enzyme (Homo sapiens, UniProt Q9UBT2); experiment: SUMOylation inhibitor hit validation, confirmation, SUMOylation inhibitor project, biochemical, AlphaScreen (AID 2018); format: functional
Sequence of SUMO-activating enzyme (Q9UBE0 whole entry): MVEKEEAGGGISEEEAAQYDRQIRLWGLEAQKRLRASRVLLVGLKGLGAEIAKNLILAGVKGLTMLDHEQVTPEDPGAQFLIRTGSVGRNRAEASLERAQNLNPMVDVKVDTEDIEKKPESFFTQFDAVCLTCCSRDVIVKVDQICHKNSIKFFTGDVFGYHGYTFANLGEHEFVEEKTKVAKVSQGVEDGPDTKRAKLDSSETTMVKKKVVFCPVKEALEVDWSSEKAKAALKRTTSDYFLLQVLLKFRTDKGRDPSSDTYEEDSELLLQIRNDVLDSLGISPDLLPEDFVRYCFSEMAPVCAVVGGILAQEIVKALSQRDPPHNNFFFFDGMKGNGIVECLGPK
Sequence of SUMO-activating enzyme (Q9UBT2 whole entry): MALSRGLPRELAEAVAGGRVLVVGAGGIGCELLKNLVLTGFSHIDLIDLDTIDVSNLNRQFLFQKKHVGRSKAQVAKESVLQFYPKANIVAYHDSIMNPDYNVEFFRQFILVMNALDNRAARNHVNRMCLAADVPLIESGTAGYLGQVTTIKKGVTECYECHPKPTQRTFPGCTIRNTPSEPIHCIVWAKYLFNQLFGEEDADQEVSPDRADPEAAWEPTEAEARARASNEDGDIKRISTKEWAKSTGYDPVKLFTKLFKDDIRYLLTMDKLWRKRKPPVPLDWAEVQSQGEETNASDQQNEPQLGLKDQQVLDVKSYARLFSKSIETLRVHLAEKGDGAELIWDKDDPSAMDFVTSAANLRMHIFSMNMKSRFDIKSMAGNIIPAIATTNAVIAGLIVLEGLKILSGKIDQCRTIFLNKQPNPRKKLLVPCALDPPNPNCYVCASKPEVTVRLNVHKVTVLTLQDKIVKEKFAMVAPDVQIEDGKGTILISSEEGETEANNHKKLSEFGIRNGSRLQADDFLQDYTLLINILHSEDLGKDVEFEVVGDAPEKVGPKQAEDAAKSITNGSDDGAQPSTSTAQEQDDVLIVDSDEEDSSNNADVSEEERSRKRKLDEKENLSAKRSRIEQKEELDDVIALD

[2] = target: T2, Voltage-gated N-type calcium channel alpha-1B subunit/Amyloid beta A4 precursor protein-binding family A member 1 (Homo sapiens, UniProt Q00975+Q02410); format: protein assay
T2 sequence (Q00975 whole entry): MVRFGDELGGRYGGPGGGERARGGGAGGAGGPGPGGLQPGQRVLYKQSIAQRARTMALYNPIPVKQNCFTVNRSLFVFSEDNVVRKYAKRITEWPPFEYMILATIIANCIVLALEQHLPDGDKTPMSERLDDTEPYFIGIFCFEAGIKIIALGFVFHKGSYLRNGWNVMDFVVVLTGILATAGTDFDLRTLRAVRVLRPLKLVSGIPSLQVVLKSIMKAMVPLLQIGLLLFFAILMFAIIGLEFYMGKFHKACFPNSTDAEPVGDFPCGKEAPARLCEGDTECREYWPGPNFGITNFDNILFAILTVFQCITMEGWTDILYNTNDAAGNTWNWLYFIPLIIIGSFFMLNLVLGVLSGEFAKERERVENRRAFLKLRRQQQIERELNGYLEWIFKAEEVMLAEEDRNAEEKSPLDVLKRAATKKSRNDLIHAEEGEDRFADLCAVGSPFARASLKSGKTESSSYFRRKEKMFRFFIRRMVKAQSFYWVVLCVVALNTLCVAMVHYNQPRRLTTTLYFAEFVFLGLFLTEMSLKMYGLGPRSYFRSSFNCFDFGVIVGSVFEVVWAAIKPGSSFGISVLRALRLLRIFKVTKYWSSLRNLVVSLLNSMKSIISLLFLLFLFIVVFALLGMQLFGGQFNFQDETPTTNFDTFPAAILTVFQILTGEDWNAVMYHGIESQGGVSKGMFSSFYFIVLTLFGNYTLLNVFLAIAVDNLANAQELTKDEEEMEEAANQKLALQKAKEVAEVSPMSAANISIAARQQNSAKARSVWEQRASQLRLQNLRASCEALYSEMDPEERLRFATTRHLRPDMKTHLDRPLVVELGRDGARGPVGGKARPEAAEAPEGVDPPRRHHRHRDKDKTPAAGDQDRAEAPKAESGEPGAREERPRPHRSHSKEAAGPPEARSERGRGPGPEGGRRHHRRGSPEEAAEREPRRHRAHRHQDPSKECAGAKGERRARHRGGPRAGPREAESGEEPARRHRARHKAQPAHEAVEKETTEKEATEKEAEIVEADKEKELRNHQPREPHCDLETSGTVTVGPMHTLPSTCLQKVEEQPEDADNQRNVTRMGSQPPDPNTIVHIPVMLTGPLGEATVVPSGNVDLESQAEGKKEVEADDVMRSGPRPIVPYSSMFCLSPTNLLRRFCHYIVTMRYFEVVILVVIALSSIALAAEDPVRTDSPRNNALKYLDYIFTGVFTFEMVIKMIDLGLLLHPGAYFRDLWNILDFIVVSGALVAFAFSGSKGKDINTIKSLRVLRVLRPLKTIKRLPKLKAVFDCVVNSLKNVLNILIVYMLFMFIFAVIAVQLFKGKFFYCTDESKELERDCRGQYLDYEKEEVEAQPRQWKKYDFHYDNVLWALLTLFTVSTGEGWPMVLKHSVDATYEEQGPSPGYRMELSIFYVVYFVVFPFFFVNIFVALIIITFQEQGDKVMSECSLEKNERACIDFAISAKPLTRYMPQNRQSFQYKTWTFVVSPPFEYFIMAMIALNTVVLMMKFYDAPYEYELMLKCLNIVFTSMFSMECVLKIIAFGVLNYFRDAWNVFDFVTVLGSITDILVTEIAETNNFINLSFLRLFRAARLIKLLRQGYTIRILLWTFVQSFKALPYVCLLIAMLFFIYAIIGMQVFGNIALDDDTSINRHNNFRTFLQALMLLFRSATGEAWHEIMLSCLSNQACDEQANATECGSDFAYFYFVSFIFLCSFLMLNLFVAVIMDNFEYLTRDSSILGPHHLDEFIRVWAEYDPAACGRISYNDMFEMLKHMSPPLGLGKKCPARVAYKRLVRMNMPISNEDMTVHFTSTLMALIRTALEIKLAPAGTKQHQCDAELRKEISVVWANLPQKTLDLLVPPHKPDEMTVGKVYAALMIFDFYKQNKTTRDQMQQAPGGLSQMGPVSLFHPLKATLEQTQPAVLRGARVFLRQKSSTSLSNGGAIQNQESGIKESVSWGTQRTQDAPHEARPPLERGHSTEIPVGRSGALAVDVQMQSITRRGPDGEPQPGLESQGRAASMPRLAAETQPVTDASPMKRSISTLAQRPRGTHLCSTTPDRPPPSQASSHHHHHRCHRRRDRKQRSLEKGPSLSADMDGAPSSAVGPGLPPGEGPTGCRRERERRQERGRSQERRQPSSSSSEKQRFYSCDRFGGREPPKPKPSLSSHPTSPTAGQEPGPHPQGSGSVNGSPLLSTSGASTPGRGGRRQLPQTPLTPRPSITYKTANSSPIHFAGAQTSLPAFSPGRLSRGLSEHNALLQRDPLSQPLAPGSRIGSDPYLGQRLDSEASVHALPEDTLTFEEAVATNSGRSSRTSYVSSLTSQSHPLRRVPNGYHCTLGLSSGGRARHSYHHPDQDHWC
T2 sequence (Q02410 whole entry): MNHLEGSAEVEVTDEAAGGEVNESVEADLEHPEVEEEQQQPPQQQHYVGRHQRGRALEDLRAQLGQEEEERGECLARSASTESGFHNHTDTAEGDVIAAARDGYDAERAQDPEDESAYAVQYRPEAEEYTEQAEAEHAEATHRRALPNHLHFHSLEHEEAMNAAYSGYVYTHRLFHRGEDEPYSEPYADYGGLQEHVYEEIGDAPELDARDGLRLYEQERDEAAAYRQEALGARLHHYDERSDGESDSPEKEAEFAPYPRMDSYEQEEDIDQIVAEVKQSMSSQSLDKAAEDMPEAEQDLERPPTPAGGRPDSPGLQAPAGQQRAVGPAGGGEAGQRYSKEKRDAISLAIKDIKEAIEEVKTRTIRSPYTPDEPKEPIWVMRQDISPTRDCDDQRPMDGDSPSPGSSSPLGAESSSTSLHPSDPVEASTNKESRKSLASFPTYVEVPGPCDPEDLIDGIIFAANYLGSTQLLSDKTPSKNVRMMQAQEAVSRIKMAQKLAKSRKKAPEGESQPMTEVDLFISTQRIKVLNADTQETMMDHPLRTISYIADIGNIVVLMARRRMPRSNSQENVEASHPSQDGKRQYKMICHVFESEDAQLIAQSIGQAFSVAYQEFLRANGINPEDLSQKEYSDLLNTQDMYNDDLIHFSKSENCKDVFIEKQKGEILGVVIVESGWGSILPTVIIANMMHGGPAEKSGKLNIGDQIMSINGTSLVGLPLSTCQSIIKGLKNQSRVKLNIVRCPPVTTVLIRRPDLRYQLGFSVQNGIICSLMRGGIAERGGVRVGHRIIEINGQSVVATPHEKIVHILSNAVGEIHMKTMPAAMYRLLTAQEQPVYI

[3] = target: T2, Voltage-gated N-type calcium channel alpha-1B subunit/Amyloid beta A4 precursor protein-binding family A member 1; format: protein assay; remark: listed apart in the source
[4] = test system: Streptococcus sp. 'group A'; experiment: growth inhibition of control SK(-) GAS strain, dose response, counter-screen for streptokinase expression inhibitor project, luminescence, kanamycin, BacTiterGlo, confirmation (AID 1900); format: functional, organism-based
Streptokinase A = target: T3, Streptokinase A (Streptococcus pyogenes serotype M1, UniProt P10520); experiment: S. pyogenes streptokinase expression inhibitors, potency, dose response, plasminogen activation absorbance, OD405 (AID 1914); format: functional, Streptococcus pyogenes M1 GAS;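 also: secreted streptokinase activity via plasminogen activation per viability signal from cell pellet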
T3 sequence (P10520 whole entry): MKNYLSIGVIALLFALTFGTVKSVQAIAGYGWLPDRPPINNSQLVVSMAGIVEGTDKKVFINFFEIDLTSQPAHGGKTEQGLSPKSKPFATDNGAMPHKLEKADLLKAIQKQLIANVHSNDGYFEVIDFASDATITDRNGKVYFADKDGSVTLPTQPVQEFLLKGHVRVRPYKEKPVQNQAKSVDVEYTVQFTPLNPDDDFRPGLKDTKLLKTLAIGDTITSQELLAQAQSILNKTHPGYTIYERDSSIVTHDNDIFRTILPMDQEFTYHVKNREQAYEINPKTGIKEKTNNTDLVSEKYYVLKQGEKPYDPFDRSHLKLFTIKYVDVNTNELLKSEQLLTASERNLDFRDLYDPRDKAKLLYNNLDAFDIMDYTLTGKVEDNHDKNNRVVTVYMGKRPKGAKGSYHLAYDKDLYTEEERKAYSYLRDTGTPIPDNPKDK

[5] = inhibitors of intracellular T. cruzi replication, confirmation, NIH3T3 host cells, beta-gal luminescence (AID 2044); format: functional, cell-based;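 also: intracellular parasites grown in NIH/3T3 mouse fibroblasts as host cells; luminescent beta-galactosidase reporter signal from transgenic T. cruzi replicating inside host cells; inhibitors lower the luminescence signal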
[6] = cytotoxicity toward NIH3T3 fibroblasts, dose response, counter-screen, cell-based, ATP luminescence, mouse fibroblasts (AID 2010); format: functional;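 also: cells exposed to compound for about 90 hours before reading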
Streptococcus = experiment: Group A Streptococcus viability loss, dose response, counter-screen for streptokinase expression inhibitor project, luminescence, BacTiterGlo (AID 1915); format: functional, organism-based;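 also: potency for reduction of bacterial viability or growth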
Cytochrome P450 2C19 = Cytochrome P450 2C19 (Homo sapiens, UniProt P33261); experiment: Cytochrome panel assay with activity outcomes. Panel member name: p450-cyp2c19 Compounds with AC50 equal or less than 10 uM are considered active; format: functional; conditions: read-out: AC50
Cytochrome P450 2C9 = Cytochrome P450 2C9 (Homo sapiens, UniProt P11712)
Sequence of Cytochrome P450 2C9 (P11712 whole entry): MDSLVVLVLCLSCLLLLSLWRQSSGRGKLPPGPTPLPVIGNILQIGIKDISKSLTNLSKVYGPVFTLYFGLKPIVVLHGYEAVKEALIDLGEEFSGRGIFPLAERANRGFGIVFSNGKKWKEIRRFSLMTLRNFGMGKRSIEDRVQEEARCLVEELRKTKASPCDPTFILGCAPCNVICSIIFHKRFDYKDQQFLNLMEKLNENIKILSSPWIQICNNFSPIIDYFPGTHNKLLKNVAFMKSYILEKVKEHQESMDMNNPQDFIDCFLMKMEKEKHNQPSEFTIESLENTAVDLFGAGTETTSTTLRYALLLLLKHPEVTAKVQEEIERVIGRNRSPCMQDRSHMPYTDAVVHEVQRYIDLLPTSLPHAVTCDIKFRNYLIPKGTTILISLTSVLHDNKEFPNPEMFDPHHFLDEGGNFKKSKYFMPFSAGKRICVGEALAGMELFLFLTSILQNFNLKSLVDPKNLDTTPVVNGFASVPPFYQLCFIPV

[7] = microbe, parasite or virus in culture; format: functional; conditions: Mycobacterium tuberculosis
[8] = growth suppression of PTEN-null colon cells, dose response, cell-based, HCT116 PTEN knockout (AID 1047); format: functional;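 also: HCT116 colon tumor cells with PTEN knocked out; cells exposed to compound for 60 hours before readout; potency for loss of cell viability measured by luminescence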
[9] = growth suppression of beta-catenin-knockout colon cells, dose response, cell-based, HCT116, human colon tumor (AID 1045); format: functional;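 also: HCT116 colon tumor cells with beta catenin knocked out; cells exposed to compound for 60 hours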
[10] = Luminescence Cell-Based Dose Retest to Confirm Inhibitors of Cancer Stem Cells. [Related pubchem assays (depositor defined):AID2717, AID2721]; format: functional; conditions: Homo sapiens
INS1 = experiment: beta cell apoptosis inhibitors, cytokine rescue, dose response, luminescence, retest (AID 449756); format: functional, cell-based; conditions: Rattus norvegicus;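 also: cell death triggered by IL-1 beta plus TNF-alpha plus IFN-gamma mixture; protective hits raise ATP signal compared with cytokine alone wells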
H9c2 = experiment: cells; format: functional, cell-based; conditions: Rattus norvegicus, H9c2, Myocardium
Large T antigen = Large T antigen (Simian virus 40, UniProt P03070); format: functional, Betapolyomavirus macacae;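 also: Confirmatory-stage PubChem screen for compounds that inhibit SV40 T antigen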
[11] = target: T4, Microphthalmia-associated transcription factor (Homo sapiens, UniProt O75030); experiment: TRPM1 promoter luciferase signal decrease, dose response, MITF inhibitor project, cell-based, SK-MEL-5, cherry-picked, set 3 (AID 493073); format: functional
T4 sequence (O75030 whole entry): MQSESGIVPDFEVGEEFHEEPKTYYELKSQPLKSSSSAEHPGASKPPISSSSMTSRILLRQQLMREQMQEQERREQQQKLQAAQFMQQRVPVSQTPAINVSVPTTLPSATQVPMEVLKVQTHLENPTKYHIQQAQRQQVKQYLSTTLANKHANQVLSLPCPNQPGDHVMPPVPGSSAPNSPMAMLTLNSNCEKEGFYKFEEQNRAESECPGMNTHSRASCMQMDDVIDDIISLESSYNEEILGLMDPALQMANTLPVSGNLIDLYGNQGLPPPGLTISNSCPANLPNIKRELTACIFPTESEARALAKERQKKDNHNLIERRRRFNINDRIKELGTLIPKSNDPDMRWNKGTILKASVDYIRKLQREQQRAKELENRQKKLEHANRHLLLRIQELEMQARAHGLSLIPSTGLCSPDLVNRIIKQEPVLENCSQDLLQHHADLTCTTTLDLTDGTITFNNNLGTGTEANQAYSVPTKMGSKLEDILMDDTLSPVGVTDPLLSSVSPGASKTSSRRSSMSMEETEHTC

[12] = target: Induced myeloid leukemia cell differentiation protein Mcl-1 (Homo sapiens, UniProt Q07820); format: functional
[13] = target: T5, Carboxy-terminal domain RNA polymerase II polypeptide A small phosphatase 1 (Homo sapiens, UniProt Q9GZU7); experiment: inhibitors of CTDSP1, concentration-response testing, biochemical assay, absorbance-based, actives from ultra-high-throughput screening (AID 540297); format: functional
T5 sequence (Q9GZU7 whole entry): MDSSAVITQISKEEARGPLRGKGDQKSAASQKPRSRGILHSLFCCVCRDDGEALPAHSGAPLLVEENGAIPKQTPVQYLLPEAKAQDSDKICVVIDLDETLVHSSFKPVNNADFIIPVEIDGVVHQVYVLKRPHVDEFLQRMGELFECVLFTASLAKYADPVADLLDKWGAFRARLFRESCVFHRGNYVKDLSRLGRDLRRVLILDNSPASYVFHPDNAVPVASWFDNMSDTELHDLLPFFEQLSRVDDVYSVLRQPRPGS

ORF 73 = target: T6, ORF 73 (Human herpesvirus 8, UniProt O40947); experiment: inhibitors of C-LANA binding to LBS DNA, dose response, biochemical, fluorescence polarization, cherry-picked samples (AID 504725); design: species or system Human gammaherpesvirus 8;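 also: fluorescence polarization of a labeled DNA duplex reporting LANA DNA binding; potency is for inhibitors that block LANA binding to the DNA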
T6 sequence (O40947 whole entry): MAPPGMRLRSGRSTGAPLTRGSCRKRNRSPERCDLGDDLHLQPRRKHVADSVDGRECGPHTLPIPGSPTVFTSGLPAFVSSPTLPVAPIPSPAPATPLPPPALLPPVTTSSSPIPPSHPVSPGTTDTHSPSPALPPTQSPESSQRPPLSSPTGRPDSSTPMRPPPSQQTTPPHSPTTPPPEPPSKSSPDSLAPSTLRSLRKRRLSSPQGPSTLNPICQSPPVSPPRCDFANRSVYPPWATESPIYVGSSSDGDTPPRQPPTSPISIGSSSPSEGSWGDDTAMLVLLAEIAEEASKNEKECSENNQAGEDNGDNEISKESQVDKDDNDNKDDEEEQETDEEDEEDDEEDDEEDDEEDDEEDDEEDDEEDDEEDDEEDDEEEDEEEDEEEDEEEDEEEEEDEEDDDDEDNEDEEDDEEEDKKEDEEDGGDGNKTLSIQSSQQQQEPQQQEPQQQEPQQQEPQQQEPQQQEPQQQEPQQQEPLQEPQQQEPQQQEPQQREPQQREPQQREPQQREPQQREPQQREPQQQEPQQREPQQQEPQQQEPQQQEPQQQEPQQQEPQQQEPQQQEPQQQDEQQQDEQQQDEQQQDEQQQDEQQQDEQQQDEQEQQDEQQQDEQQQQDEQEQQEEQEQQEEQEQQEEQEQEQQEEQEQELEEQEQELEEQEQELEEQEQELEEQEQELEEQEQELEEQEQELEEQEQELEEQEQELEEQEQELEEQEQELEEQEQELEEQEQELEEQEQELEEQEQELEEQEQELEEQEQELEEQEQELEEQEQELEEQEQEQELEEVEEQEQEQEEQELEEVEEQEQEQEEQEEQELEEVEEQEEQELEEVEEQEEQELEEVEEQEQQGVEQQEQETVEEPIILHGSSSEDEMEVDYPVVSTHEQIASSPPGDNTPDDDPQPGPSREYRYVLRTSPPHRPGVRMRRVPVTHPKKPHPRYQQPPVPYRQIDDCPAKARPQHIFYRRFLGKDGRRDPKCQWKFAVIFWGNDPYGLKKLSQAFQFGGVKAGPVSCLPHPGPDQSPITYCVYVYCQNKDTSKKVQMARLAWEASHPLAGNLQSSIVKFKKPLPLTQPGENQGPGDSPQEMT

## O=C(CSc1nnc(COc2ccccc2)n1Cc1ccco1)c1ccc(F)cc1
Coagulation factor XII
  IC50: > 50 µM (inactive)

## Clc1ccc(C2=Nn3c(nnc3-c3cc(-c4ccccc4)n[nH]3)SC2)cc1
[1]
  EC50: 37.9 µM (inactive)
Melanocortin receptor 4
  EC50: > 89.2 µM (inactive)

## Nc1ccc2nc(-c3ccc(-c4nc5ccc(N)cc5[nH]4)cc3)[nH]c2c1
SUMO-activating enzyme
  IC50: > 100 µM (inactive)
[2]
  IC50: 5.62 µM (active)
[3]
  IC50: > 50 µM (inactive)

## Cc1cc(C)n(-c2nc(Nc3ccccc3C)nc(-n3nc(C)cc3C)n2)n1
[4]
  EC50: 8.77 µM (active)
Streptokinase A
  EC50: > 150 µM (not active)
[5]
  EC50: 1.07 µM (active)
[6]
  EC50: > 60 µM (inconclusive)
Streptococcus
  EC50: 23.2 µM (active)
[1]
  EC50: 7.86 µM (active)
Cytochrome P450 2C19
  AC50: 39.8 µM (inconclusive)
Cytochrome P450 2C9
  AC50: 15.8 µM (inconclusive)

## CCc1ccc2c(c1)C1(C(=O)N2)N2CCCC2C(C(=O)c2ccc3ccccc3c2)C12C(=O)Nc1ccccc12 (stereo unspecified)
[7]
  CC50: 16.2 µM (active)
[8]
  EC50: 10.2 µM (active)
[9]
  EC50: 10.1 µM (active)
[10]
  AC50: 3.05 µM (active)
[1]
  EC50: 9.78 µM (active)
INS1
  AC50: 6.87 µM (active)

## COc1cccc(OC)c1-c1nn2c(-c3ccco3)nnc2s1
Coagulation factor XII
  IC50: > 50 µM (inactive)
H9c2
  IC50: > 79 µM (inactive)

## CC(C)C(OC(=O)c1cccs1)C(=O)NCc1ccc2c(c1)OCO2 (stereo unspecified)
Coagulation factor XII
  IC50: > 50 µM (inactive)

## O=C1NC(=O)C(=Cc2ccc(-c3cc(Cl)ccc3[N+](=O)[O-])o2)C(=O)N1
[2]
  IC50: 4.58 µM (active)
Large T antigen
  IC50: 48.3 µM (active)
[3]
  IC50: > 50 µM (inactive)
[11]
  AC50: 17.2 µM (active)

## O=C(O)CCn1cc(C=C2C(=O)NC(=S)NC2=O)c(-c2cc3ccccc3oc2=O)n1
[2]
  IC50: 17.8 µM (active)
[3]
  IC50: 6.27 µM (active)
[12]
  IC50: 3.42 µM (active)
[13]
  IC50: 13 µM (active)

## CC(C)c1ccc(NC(=O)c2ccc(Br)o2)cc1
Coagulation factor XII
  IC50: > 50 µM (inactive)

## Cc1cc2c(c(=O)n1C)C(Cc1ccccc1)C(C#N)=C(N)O2 (stereo unspecified)
Coagulation factor XII
  IC50: > 50 µM (inactive)

## CCOC(=O)C1Nc2ccccc2C2C(O)C(O)CC12 (stereo unspecified)
ORF 73
  AC50: > 350 µM (inactive)

## O=C(N/N=C/c1coc2ccccc2c1=O)c1cc(O)cc(O)c1
[2]
  IC50: 7.54 µM (active)
[3]
  IC50: > 50 µM (inactive)
